From patent publication US20220062310A1, “[…] PATIENTS WITH OBSESSIVE-COMPULSIVE DISORDER” (YALE UNIVERSITY, priority 2020, published 2022)

How the values were obtained:
[1] = tested on: patients with treatment resistant OCD; test: Same OCD study: depression scores (Montgomery-Asberg Depression Rating Scale); assay type: in vivo, human; settings: single dose 0.25 mg/kg; scores not high in most subjects
Text: (§1) Research Materials and Measures: Participants can complete self-report and clinician-administered measures of OCD symptoms, anxiety, depression, quality of life, and spirituality at baseline, prior to psilocybin session, and during all designated study visits. […]

[2] = tested on: patients with treatment resistant OCD; test: Same OCD study: state and trait anxiety scores (STAI); assay type: in vivo, human; settings: single dose 0.25 mg/kg
Text: as §1

[3] = tested on: serotonin 5-hydroxytryptamine (5-HT) receptors; settings: after conversion in the body to psilocin; most affinity to 5-HT2A and 5-HT2C, lesser to 5-HT1A; cited from earlier work
OCD symptoms = settings: low doses (2 mg-4 mg); cited from earlier work
rats = settings: cited from earlier work
mice = settings: cited from earlier work
humans [4] = settings: pure psilocybin; cited from earlier work
humans [5] = settings: oral doses of up to 0.6 mg/kg; cited from earlier work
study participants = settings: cited from earlier work
[6] = non-medical use as mushrooms; cited from earlier work
humans [7] = test: Estimated lethal dose of pure psilocybin in humans; settings: 0.25 mg/kg versus LD50 in nonhuman animals and in humans
[8] = tested on: patients with treatment resistant OCD; test: Double-blind, placebo controlled study of psilocybin in OCD (NCT03356483): acute-YBOCS / YBOCS

## CN(C)CCc1c[nH]c2cccc(OP(=O)(O)O)c12 [psilocybin, 3-(2-dimethylaminoethyl)-1H-indol-4-yl] dihydrogen phosphate]
[1]
  depression scores (MADRS, FIG. 5): improved after psilocybin in several subjects
[2]
  state anxiety scores (FIG. 6): improved in those subjects whose OCD symptoms also improved
[3]
  action at 5-HT receptors: partial agonist
OCD symptoms
  acute effect on OCD symptoms: acutely attenuated OCD symptoms even after low doses
rats
  LD50: 285 mg/kg
mice
  LD50: 285 mg/kg
Humans [4]
  best estimate of a lethal dose: about 19 grams
Humans [5]
  serious adverse events: no serious adverse events
Study participants; 30 mg psilocybin
  reactions requiring pharmacological intervention: no reactions requiring pharmacological intervention occurred
Study participants; healthy study participants
  rates of prolonged psychiatric symptoms of any kind following exposure: 0.08-0.09%
Study participants; meta-analysis, 110 research participants (1 participant)
  participants with distress sufficient to contact the researchers: 0.9%
Study participants; meta-analysis, 110 research participants
  participants who endorsed negative changes in psychological well-being: 7 participants
Study participants; most effects
  duration of common acute side effects: last no longer than six hours
Study participants; over 2000 participants under controlled conditions
  adverse events associated with drug administration: no reports of the occurrence of a significance of adverse events
Study participants; review of studies 1999 to 2008, mild, brief, resolved within three days
  subjects with persistent perceptual symptoms associated with HPPD: one subject (out of 110)
[6]
  share of drug-related emergency department visits that mention it: 0.1%
Humans [7]
  full study dose relative to LD50: over 100 times smaller
[8]; open-label, one of three subjects, 12 weeks follow-up
  improvement in OCD symptoms after psilocybin in subjects who had previously received placebo (FIG. 4): robust and lasting improvement in symptoms
[8]; single dose 0.25 mg/kg, the three improved subjects
  persistence of the improvement in symptoms: 12 weeks
[8]; single dose 0.25 mg/kg, three of the subjects receiving psilocybin
  improvement in OCD symptoms (YBOCS, FIG. 2 and 3): robust improvement in symptoms
[8]; single oral dose 0.25 mg/kg, N=5, baseline M=25.5 (18 to 29), SD=11.52, t(3)=2.71, p=0.036
  acute-YBOCS score (M) at 48-hours after drug administration: 15
